Reference: patent US10647690B2, “2,3-epoxy succinyl derivative, preparation method and use thereof” (Institute of Pharmacology and Toxicology Academy of …, priority 2016, dated 2020)
Like-named read-outs stand apart in the source and are kept apart here.

Assays:
Type in all cases: biochemical
Cathepsin K [1] = molecular target: T1, Cathepsin K (Homo sapiens, UniProt P43235); test: IC50 determination against Cathepsin K (Biovision kit K150-100); conditions: CTSK
T1 construct: purchased Biovision K150-100
T1 sequence (P43235 115-329): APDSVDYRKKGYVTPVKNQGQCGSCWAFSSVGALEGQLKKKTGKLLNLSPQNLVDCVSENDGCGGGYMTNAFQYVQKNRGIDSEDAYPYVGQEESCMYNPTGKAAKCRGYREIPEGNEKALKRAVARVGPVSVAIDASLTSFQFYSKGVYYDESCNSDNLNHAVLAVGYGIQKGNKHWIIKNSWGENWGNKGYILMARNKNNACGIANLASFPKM
Description: (§1) 2. Method for determining IC50 of compounds against cathepsin:
IC50 of compounds against Cathepsin K was determined by using Cathepsin K Inhibitor Screening Kit (Product No. K150-100) from Biovision Company;
2.1.1.1 Preparation of Cathepsin K solution: Cathepsin K enzyme (23 μl) and Cathepsin K reagent (46 μl) were added to Cathepsin K buffer (2231 μl), and mixed well, to prepare Cathepsin K enzyme solution with a volume of 2.3 ml, which was placed on ice for further use.
(§2) 2.1.2 Preparation of compound solutions: 30 mM and 10 mM compound stock solutions, and control compounds were gradiently diluted in DMSO at a ratio of 1:3, wherein the maximum dilution fold was 19683; the gradiently diluted compound solution (3 μl) was added to Cathepsin K, B, L, and S buffer (27 μl), respectively, and mixed well, wherein the control compounds (FF-FMK, F-F-FMK, FF-FMK and Z-FF-FMK) were at the concentrations of 66.67, 22.22, 7.41, 2.47, 0.82, 0.27, 0.091, 0.03, 0.01, 0.0034 and 0 μM, respectively, the test compounds were at the concentrations of 1000, 333.3, 111.1, 37, 12.3, 4.1, 1.4, 0.46, 0.15, 0.05 and 0 μM, respectively, and the final concentration of DMSO was 10%.
2.1.3.1 Cathepsin K: Cathepsin K substrate (90 μl) was added to Cathepsin K buffer (1710 μl), and mixed well, to prepare Cathepsin K substrate solution with a volume of 1.8 ml, which was placed on ice for further use.
(§3) Method for screening cathepsin inhibitors: the cathepsin solution (prepared in Item 2.1.1) was added to a 384-well plate (ProxiPlate-384 Plus, Perkinelmer) at 10 μl/well, and centrifuged at 1000 rpm for Imin; the compound solution (prepared in Item 2.1.2) was then added at 2 μl/well, and every concentration was repeated in two wells; the final concentrations of the test compounds were 100, 33.3, 11.1, 3.7, 1.23, 0.41, 0.14, 0.046, 0.015, 0.005 and 0 μM, respectively, wherein the final concentration of DMSO was 1%; after centrifugation at 1000 rpm for 1 min, the plate was put in a 25° C. incubator for 15 min; the cathepsin substrate solution was then added at 8 µl/well, and centrifuged at 1000 rpm for 1 min; and finally, the fluorescence signal was read in Enspire, wherein the exciting light was at a wavelength of 400 nm, the emitting light was at a wavelength of 505 nm, and continuous reading was performed at 37° C. for 120 min.
(§4) Data analysis: the slope (S) for all the samples was calculated by ΔRFU(RFU2−RFU1) and time ΔT(T2−T1), including negative control (Enzyme Control, EC) and positive control (Inhibitor Control, IC: 10 μM (FF-FMK, F-F-FMK, FF-FMK and Z-FF-FMK), and the calculation formula was as followed: Relative inhibition rate %=(SEC−SS)/(SEC−SIC)*100. The IC50 for each compound was obtained by means of fitting by software GraphPad Prism 5.0.

Cathepsin S = molecular target: T2, Cathepsin S (Homo sapiens, UniProt P25774); test: IC50 determination against Cathepsin S (Biovision kit K149-100); conditions: CTSS
T2 construct: purchased Biovision K149-100
Description: as §1
IC50 of compounds against Cathepsin S was determined by using Cathepsin S Inhibitor Screening Kit (Product No. K149-100) from Biovision Company.
2.1.1.4 Preparation of Cathepsin S solution: Cathepsin S enzyme (46 μl) was added to Cathepsin S buffer (2254 μl), and mixed well, to prepare Cathepsin S enzyme solution with a volume of 2.3 ml, which was placed on ice for further use.
as §2
2.1.3.4 Cathepsin S: Cathepsin S substrate (90 μl) was added to Cathepsin S buffer (1710 μl), and mixed well, to prepare Cathepsin S substrate solution with a volume of 1.8 ml, which was placed on ice for further use.
as §3, §4

Cathepsin K [2] = molecular target: T1, Cathepsin K; test: Preliminary screening of Cathepsin K (Cathepsin K Inhibitor Screening Kit K150-100, Biovision); conditions: relative inhibition rate vs 10 μM FF-FMK control
Description: 1. Method for preliminary screening of Cathepsin K:
Preliminary screening of Cathepsin K was performed by using Cathepsin K Inhibitor Screening Kit (Product No. K150-100) from Biovision Company.
1.1.1 Preparation of Cathepsin K enzyme solution: Cathepsin K enzyme (40 μl) and Cathepsin K reagent (80 μl) were added to Cathepsin K buffer (3.88 ml), and were mixed well, to prepare Cathepsin K enzyme solution with a volume of 4 ml, which was placed on ice for further use.
1.1.2 Preparation of a compound solution: different compounds were separately weighed and dissolved in DMSO (methyl sulfoxide), to prepare solutions at a concentration of 30 mM as stock solutions, and for some insoluble compounds, they were prepared into solutions at a concentration of 10 mM as stock solutions; the 30 mM and 10 mM compound stock solutions were diluted to 1 mM and 100 μM DMSO solutions, respectively; 1 mM and 100 μM compound DMSO solutions (2 μl) were separately added to CTSK buffer (18 μl), to prepare compound solutions at a final concentration of 100 μM and 10 μM, respectively, wherein the concentration of DMSO was 10%.
1.1.3 Preparation of Cathepsin K substrate solution: Cathepsin K substrate (160 μl) was added to Cathepsin K buffer (3.44 ml), and mixed homogeneously, to prepare Cathepsin K substrate solution with a volume of 3.6 ml, which was placed on ice for further use.
1.2 Method for screening Cathepsin K inhibitor: Cathepsin K enzyme solution (prepared in Item 1.1.1) was added to a 384-well plate (ProxiPlate-384 Plus, Perkinelmer) at 10 μl/well, and centrifuged at 1000 rpm for 1 min; the compound solution (prepared in Item 1.1.2) was then added at 2 µl/well, and centrifuged at 1000 rpm for 1 min, and every concentration was repeated in two wells; the plate was placed in a 25° C. incubator for 15 min; Cathepsin K substrate solution was then added at 8 μl/well, and centrifuged at 1000 rpm for 1 min; and finally, the fluorescence signal was read in Enspire, wherein the exciting light was at a wavelength of 400 nm, the emitting light was at a wavelength of 505 nm, and continuous reading was performed at 37° C. for 120 min.
1.3 Data analysis: the slope (S) for all the samples was calculated by ΔRFU (RFU2−RFU1) and time ΔT (T2−T1), including negative control (Enzyme Control, EC) and positive control (Inhibitor Control, IC: 10 μM FF-FMK), and the calculation formula was as followed: Relative inhibition rate %=(SEC−SS)/(SEC−SIC)*100.

[3] = Exp-1, read-out: IC50 (nM) Exp-1
[4] = Exp-2, read-out: IC50 (nM) Exp-2
[5] = average of Exp-1 and Exp-2, read-out: Ave of IC50

T2 sequence (P25774 115-331): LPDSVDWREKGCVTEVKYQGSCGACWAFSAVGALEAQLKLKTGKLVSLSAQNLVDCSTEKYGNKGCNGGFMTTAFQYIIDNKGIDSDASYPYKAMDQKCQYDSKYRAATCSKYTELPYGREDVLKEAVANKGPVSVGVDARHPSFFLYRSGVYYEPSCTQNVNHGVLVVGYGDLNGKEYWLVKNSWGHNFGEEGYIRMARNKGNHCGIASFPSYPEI

IC50 (Cathepsin K [1]; [3]): 252 nM
IC50 (Cathepsin K [1]; [4]): 245 nM
IC50 (Cathepsin K [1]; [5]): 248 nM
IC50 (Cathepsin S; [3]): 3510 nM
IC50 (Cathepsin S; [4]): 3230 nM
IC50 (Cathepsin S; [5]): 3370 nM
Inhibition % (1 μM) replicate 1 (Cathepsin K [2]; 1 μM compound, replicate 1): 88.44%
Inhibition % (1 μM) replicate 2 (Cathepsin K [2]; 1 μM compound, replicate 2): 92.44%
Inhibition % (10 μM) replicate 1 (Cathepsin K [2]; 10 μM compound, replicate 1): 94.49%
Inhibition % (10 μM) replicate 2 (Cathepsin K [2]; 10 μM compound, replicate 2): 91.36%
Compound: CCCNC(=O)[C@H]1O[C@@H]1C(=O)N[C@H](C(=O)N1CCC[C@H]1C(=O)O)[C@@H](C)CC [zxy-60, CA-074, reference compound]
